Data reported in ChEMBL document CHEMBL1201862, “PubChem BioAssay data set” (2004).
Active and inactive are the calls of the source. No stated cut-off is given here; in the data, actives have a measured IC50 and inactives only a lower limit.

Target: Envelope glycoprotein gp160 (Human immunodeficiency virus 1, UniProt Q6QLK5)
Assay: cell-free HIV fusion peptide-binding blockers – biochemical, uHTS, fluorescence dequenching, […] (AID 1986)

Chain of Envelope glycoprotein gp160 (Q6QLK5 whole entry, the tested form may be a part): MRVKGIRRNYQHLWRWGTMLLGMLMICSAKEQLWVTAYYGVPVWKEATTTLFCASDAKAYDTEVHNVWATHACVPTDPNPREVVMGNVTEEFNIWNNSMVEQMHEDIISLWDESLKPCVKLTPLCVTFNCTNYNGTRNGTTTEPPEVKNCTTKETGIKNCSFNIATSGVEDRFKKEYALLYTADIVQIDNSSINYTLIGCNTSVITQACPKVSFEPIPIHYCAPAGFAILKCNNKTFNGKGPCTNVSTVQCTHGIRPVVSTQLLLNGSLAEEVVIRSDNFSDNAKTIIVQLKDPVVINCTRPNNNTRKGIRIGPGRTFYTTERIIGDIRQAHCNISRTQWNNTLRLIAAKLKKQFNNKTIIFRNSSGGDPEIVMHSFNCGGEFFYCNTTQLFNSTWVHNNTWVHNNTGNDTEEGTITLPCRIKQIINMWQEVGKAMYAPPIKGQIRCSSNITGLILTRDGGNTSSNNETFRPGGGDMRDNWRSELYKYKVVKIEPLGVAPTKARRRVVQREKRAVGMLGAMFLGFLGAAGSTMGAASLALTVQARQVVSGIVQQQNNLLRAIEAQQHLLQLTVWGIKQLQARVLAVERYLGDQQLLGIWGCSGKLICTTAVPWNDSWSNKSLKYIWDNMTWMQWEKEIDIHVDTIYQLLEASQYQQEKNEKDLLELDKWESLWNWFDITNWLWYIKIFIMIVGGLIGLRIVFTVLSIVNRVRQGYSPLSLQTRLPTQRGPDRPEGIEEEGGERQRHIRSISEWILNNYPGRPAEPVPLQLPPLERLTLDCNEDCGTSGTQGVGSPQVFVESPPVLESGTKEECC

Row | Structure (SMILES) | IC50
1 | O=C(O)CSc1nc(-c2ccc(Cl)cc2)nc2c1oc1ccccc12 | 15.4 µM (active)
2 | COc1cccc(-c2nc(SCC(=O)Nc3nc(-c4ccccc4)c(C)s3)[nH]c(=O)c2C#N)c1 | 10.3 µM (active)
